Key:
Fibroblast = test: Antiproliferative activity against human fibroblast cells after 48 hrs by Hoechst 33342 staining-based assay; type: cell-based
HaCaT [1] = test: Antiproliferative activity against human HaCaT cells after 48 hrs by Hoechst 33342 staining-based assay; type: cell-based
MDA-MB-231 [2] = test: Antiproliferative activity against human MDA-MB-231 cells after 48 hrs by Hoechst 33342 staining-based assay; type: functional, cell-based; details: MDA-MB-231, 48 h
NCI-H727 = test: Antiproliferative activity against human NCI-H727 cells after 48 hrs by Hoechst 33342 staining-based assay; type: functional, cell-based; details: NCI-H727, 48 h
Huh-7 [3] = test: Antiproliferative activity against human HuH7 cells after 48 hrs by Hoechst 33342 staining-based assay; type: functional, cell-based; details: Huh-7, 48 h
Caco-2 = test: Antiproliferative activity against human Caco2 cells after 48 hrs by Hoechst 33342 staining-based assay; type: functional, cell-based; details: Caco-2, 48 h
PC-3 [4] = test: Antiproliferative activity against human PC3 cells after 48 hrs by Hoechst 33342 staining-based assay; type: functional, cell-based; details: PC-3, 48 h
HCT-116 [5] = test: Antiproliferative activity against human HCT116 cells after 48 hrs by Hoechst 33342 staining-based assay; type: functional, cell-based; details: HCT-116, 48 h
Huh-7 [6] = test: Antiproliferative activity against human HuH7 cells at 0.1 to 25 uM after 48 hrs by Hoechst 33342 staining-based assay relative to control; type: functional
HaCaT [7] = test: Antiproliferative activity against human HaCaT cells at 0.1 to 25 uM after 48 hrs by Hoechst 33342 staining-based assay relative to control; type: cell-based
HCT-116 [8] = test: Antiproliferative activity against human HCT116 cells at 0.1 to 25 uM after 48 hrs by Hoechst 33342 staining-based assay relative to control; type: functional
MDA-MB-231 [9] = test: Antiproliferative activity against human MDA-MB-231 cells at 0.1 to 25 uM after 48 hrs by Hoechst 33342 staining-based assay relative to control; type: functional
PC-3 [10] = test: Antiproliferative activity against human PC3 cells at 0.1 to 25 uM after 48 hrs by Hoechst 33342 staining-based assay relative to control; type: functional

Row | SMILES | IC50 (Fibroblast) | IC50 (HaCaT [1]) | IC50 (MDA-MB-231 [2]) | IC50 (NCI-H727) | IC50 (Huh-7 [3]) | IC50 (Caco-2) | IC50 (PC-3 [4]) | IC50 (HCT-116 [5]) | Activity (Huh-7 [6]) | Activity (HaCaT [7]) | Activity (HCT-116 [8]) | Activity (MDA-MB-231 [9]) | Activity (PC-3 [10])
1 | COc1ccc(-c2ccc(Oc3ccccc3)nn2)cc1 | > 25 µM | > 25 µM | > 25 µM | > 25 µM | > 25 µM | > 25 µM | > 25 µM | > 25 µM |  |  |  |  | 
2 | COc1ccc(-c2ccc(N3CCOCC3)nn2)cc1 | > 25 µM | > 25 µM | > 25 µM | > 25 µM | > 25 µM | > 25 µM | > 25 µM | > 25 µM |  |  |  |  | 
3 | c1ccc(Oc2ccc(-c3ccsc3)nn2)cc1 | > 25 µM | > 25 µM | > 25 µM | > 25 µM | > 25 µM | > 25 µM | > 25 µM | > 25 µM |  |  |  |  | 
4 | COc1ccccc1-c1ccc(N2CCN(C)CC2)nn1 | > 25 µM | > 25 µM | > 25 µM | > 25 µM | 30 µM | 50 µM | > 25 µM | > 25 µM | 75% |  |  |  | 
5 | CN1CCN(c2ccc(-c3cccc(C(F)(F)F)c3)nn2)CC1 | > 25 µM | > 25 µM | > 25 µM | > 25 µM | 30 µM | 50 µM | > 25 µM | > 25 µM | 75% |  |  |  | 
6 | c1ccc2nc(-c3ccc(N4CCOCC4)nn3)ccc2c1 | > 25 µM | > 25 µM | > 25 µM | > 25 µM | > 25 µM | > 25 µM | > 25 µM | > 25 µM |  |  |  |  | 
7 | CC(=O)c1ccc(-c2ccc(N3CCCC3)nn2)cc1 | > 25 µM | > 25 µM | > 25 µM | > 25 µM | 30 µM | 50 µM | > 25 µM | > 25 µM | 75% |  |  |  | 
8 | Oc1cccc(-c2nc(N3CCOCC3)c3oc4ncccc4c3n2)c1 [PI-103] | > 25 µM | 2 µM | 8 µM | > 25 µM | 6 µM | 0.8 µM | 1.2 µM | 3 µM | 40% | 70% | 80% | 40% | 60%
9 | FC(F)(F)c1cccc(-c2ccc(Oc3ccccc3)nn2)c1 | > 25 µM | > 25 µM | > 25 µM | > 25 µM | > 25 µM | > 25 µM | > 25 µM | > 25 µM |  |  |  |  | 
10 | CCCCOc1ccc(-c2ccc(C(=O)OCC)cc2)nn1 | > 25 µM | > 25 µM | > 25 µM | > 25 µM | > 25 µM | > 25 µM | > 25 µM | > 25 µM |  |  |  |  | 
11 | N#Cc1ccc(Oc2ccc(-c3ccccc3)nn2)cc1 | > 25 µM | > 25 µM | > 25 µM | > 25 µM | > 25 µM | > 25 µM | > 25 µM | > 25 µM |  |  |  |  | 
12 | CCOC(=O)c1ccc(-c2ccc(N3CCOCC3)nn2)cc1 | > 25 µM | > 25 µM | > 25 µM | > 25 µM | > 25 µM | > 25 µM | > 25 µM | > 25 µM |  |  |  |  | 
13 | c1cncc(-c2ccc(N3CCOCC3)nn2)c1 | > 25 µM | > 25 µM | > 25 µM | > 25 µM | > 25 µM | > 25 µM | > 25 µM | > 25 µM |  |  |  |  | 
14 | c1cc(-c2ccc(N3CCOCC3)nn2)cs1 | > 25 µM | > 25 µM | > 25 µM | > 25 µM | > 25 µM | > 25 µM | > 25 µM | > 25 µM |  |  |  |  | 
15 | COc1ccc(Nc2ccc(-c3ccccc3)nn2)cc1 | > 25 µM | > 25 µM | > 25 µM | > 25 µM | 30 µM | 50 µM | > 25 µM | > 25 µM | 75% |  |  |  | 
16 | CCOC(=O)c1ccc(-c2ccc(OCC)nn2)cc1 | > 25 µM | > 25 µM | > 25 µM | > 25 µM | > 25 µM | > 25 µM | > 25 µM | > 25 µM |  |  |  |  | 
17 | CCOC(=O)c1ccccc1-c1ccc(N2CCOCC2)nn1 | > 25 µM | > 25 µM | > 25 µM | > 25 µM | > 25 µM | > 25 µM | > 25 µM | > 25 µM |  |  |  |  | 
18 | FC(F)(F)c1cccc(-c2ccc(N3CCOCC3)nn2)c1 | > 25 µM | > 25 µM | > 25 µM | > 25 µM | > 25 µM | > 25 µM | > 25 µM | > 25 µM |  |  |  |  | 

Row | SMILES | IC50 (Fibroblast) | IC50 (HaCaT [1]) | IC50 (MDA-MB-231 [2]) | IC50 (NCI-H727) | IC50 (Huh-7 [3]) | IC50 (Caco-2) | IC50 (PC-3 [4]) | IC50 (HCT-116 [5]) | Activity (Huh-7 [6]) | Activity (HaCaT [7]) | Activity (HCT-116 [8]) | Activity (MDA-MB-231 [9]) | Activity (PC-3 [10])
19 | CCOC(=O)c1ccc(-c2ccc(OC(C)C)nn2)cc1 | > 25 µM | > 25 µM | > 25 µM | > 25 µM | > 25 µM | > 25 µM | > 25 µM | > 25 µM |  |  |  |  | 
20 | CC(=O)c1cccc(-c2ccc(OCc3ccccc3)nn2)c1 | > 25 µM | > 25 µM | > 25 µM | > 25 µM | > 25 µM | > 25 µM | > 25 µM | > 25 µM |  |  |  |  | 
21 | CCN(CC)c1ccc(-c2cccc(OC)c2)nn1 | > 25 µM | > 25 µM | > 25 µM | > 25 µM | > 25 µM | > 25 µM | > 25 µM | > 25 µM |  |  |  |  | 
22 | CCN(CC)c1ccc(-c2ccc(C(=O)O)cc2)nn1 | > 25 µM | > 25 µM | > 25 µM | > 25 µM | > 25 µM | > 25 µM | > 25 µM | > 25 µM |  |  |  |  | 
23 | CCN(CC)c1ccc(-c2cccc(Cl)c2)nn1 | > 25 µM | > 25 µM | > 25 µM | > 25 µM | > 25 µM | > 25 µM | > 25 µM | > 25 µM |  |  |  |  | 
24 | Cc1cccc(-c2ccc(N3CCOCC3)nn2)c1 | > 25 µM | > 25 µM | > 25 µM | > 25 µM | > 25 µM | > 25 µM | > 25 µM | > 25 µM |  |  |  |  | 
25 | Fc1ccc(-c2ccc(N3CCOCC3)nn2)cc1 | > 25 µM | > 25 µM | > 25 µM | > 25 µM | > 25 µM | > 25 µM | > 25 µM | > 25 µM |  |  |  |  | 
26 | c1ccc(-c2ccc(N3CCOCC3)nn2)cc1 | > 25 µM | > 25 µM | > 25 µM | > 25 µM | > 25 µM | > 25 µM | > 25 µM | > 25 µM |  |  |  |  | 
27 | COC(=O)c1cccc(-c2ccc(-n3cccc3)nn2)c1 | > 25 µM | > 25 µM | > 25 µM | > 25 µM | 30 µM | 50 µM | > 25 µM | > 25 µM | 75% |  |  |  | 
28 | CCN(CC)c1ccc(-c2cccc(C(F)(F)F)c2)nn1 | > 25 µM | > 25 µM | > 25 µM | > 25 µM | > 25 µM | > 25 µM | > 25 µM | > 25 µM |  |  |  |  | 
29 | CCN(CC)c1ccc(-c2ccc(C#N)cc2)nn1 | > 25 µM | > 25 µM | > 25 µM | > 25 µM | > 25 µM | > 25 µM | > 25 µM | > 25 µM |  |  |  |  | 
30 | CCOC(=O)c1cccc(-c2ccc(N3CCOCC3)nn2)c1 | > 25 µM | > 25 µM | > 25 µM | > 25 µM | > 25 µM | > 25 µM | > 25 µM | > 25 µM |  |  |  |  | 
31 | Cc1cccc(-c2ccc(Oc3ccc(F)cc3)nn2)c1 | > 25 µM | > 25 µM | > 25 µM | > 25 µM | > 25 µM | > 25 µM | > 25 µM | > 25 µM |  |  |  |  | 
32 | Cc1ccc(-c2ccc(N3CCN(c4ccccc4)CC3)nn2)cc1 | > 25 µM | > 25 µM | > 25 µM | > 25 µM | 30 µM | 50 µM | > 25 µM | > 25 µM | 75% |  |  |  | 
33 | CCN(CC)c1ccc(-c2cccc(C#N)c2)nn1 | > 25 µM | > 25 µM | > 25 µM | > 25 µM | > 25 µM | > 25 µM | > 25 µM | > 25 µM |  |  |  |  | 
34 | FC(F)(F)c1cccc(-c2ccc(N3CCCC3)nn2)c1 | > 25 µM | > 25 µM | > 25 µM | > 25 µM | 30 µM | 50 µM | > 25 µM | > 25 µM | 75% |  |  |  | 
35 | CCCCOc1ccc(-c2cccc(C#N)c2)nn1 | > 25 µM | > 25 µM | > 25 µM | > 25 µM | > 25 µM | > 25 µM | > 25 µM | > 25 µM |  |  |  |  | 

— ChEMBL document CHEMBL4422646, “Synthesis and biological evaluation of 3-amino-, 3-alkoxy- and 3-aryloxy-6-(hetero)arylpyridazines as potent antitumor agents” (Bioorg Med Chem Lett, 2019)
